From patent publication US5869494A, “Uses for barbituric acid analogs” (priority 1997, dated 1999)

What was measured:
[1] = Alleviation of depression in HIV-1 positive subjects; type: in vivo, human; conditions: 4.3 mg/kg for 15 days; three HIV-1 positive subjects
EKVX = assay: NCI tumor cell line screen (SRB assay); type: cell-based; parameters: activity: dose or concentration left out as unconfirmed; conditions: Homo sapiens, read-out: PERCENT GROWTH
Description: (§1) The National Cancer Institute carried out the studies at the direction of the present inventor.
(§2) In the tests, the National Cancer Institute used the SRB (sulforhodamine B) assay as described by Skehan et al., (Journal of the National Cancer Institute, 82:13, Jul. 4, 1990, 1107-1112). Briefly, the assay is as follows. TCA-fixed cells were stained for 30 minutes with 0.4% (wt/vol) SRB dissolved in 1% acetic acid. At the end of the staining period, SRB was removed and cultures were quickly rinsed four times with 1% acetic acid to remove unbound dye. The acetic acid was poured directly into the culture wells from a beaker. […] Residual wash solution was removed by sharply flicking plates over a sink, which ensured the complete removal of rinsing solution. […] After being rinsed, the cultures were air dried until no standing moisture was visible. Bound dye was solubilized with 10 mM unbuffered Tris base (pH 10.5) for 5 minutes on a gyratory shaker.
(§3) Optical density (OD) was read in either a UVmax microtiter plate reader (Molecular Devices, Menlo Park, Calif.) or a Beckman DU-70 spectrophotometer. For maximum sensitivity, OD was measured at 564 nm. Because readings were linear with dye concentrations only below 1.8 OD units, however, suboptimal wavelengths were generally used, so that all samples in an experiment remained within the linear OD range. With most cell lines, wavelengths of approximately 490-530 nm worked well for this purpose.
(§4) Nine different non-small cell lung carcinoma cell lines, six different colon carcinoma cell lines, six different CNS (central nervous system) carcinoma cell lines, seven different melanoma cell lines, six different ovarian carcinoma cell lines, and eight different renal carcinoma cell lines were tested.

UACC-257 = assay: NCI tumor cell line screen (SRB assay); type: cell-based; parameters: activity: dose or concentration left out as unconfirmed; conditions: Homo sapiens, read-out: PERCENT GROWTH
Description: as §1, §2, §3, §4

PK-10 = assay: NCI tumor cell line screen (SRB assay); type: cell-based; parameters: activity: dose or concentration left out as unconfirmed; conditions: Homo sapiens, read-out: PERCENT GROWTH
Description: as §1, §2, §3, §4

HT29 = assay: NCI tumor cell line screen (SRB assay); type: cell-based; parameters: activity: dose or concentration left out as unconfirmed; conditions: Homo sapiens, HT-29, read-out: PERCENT GROWTH
Description: as §1, §2, §3, §4

A549/ATCC = assay: NCI tumor cell line screen (SRB assay); type: cell-based; parameters: activity: dose or concentration left out as unconfirmed; conditions: Homo sapiens, read-out: PERCENT GROWTH
Description: as §1, §2, §3, §4

SK-MEL-2 = assay: NCI tumor cell line screen (SRB assay); type: cell-based; parameters: activity: dose or concentration left out as unconfirmed; conditions: Homo sapiens, read-out: PERCENT GROWTH
Description: as §1, §2, §3, §4

OVCAR-8 = assay: NCI tumor cell line screen (SRB assay); type: cell-based; parameters: activity: dose or concentration left out as unconfirmed; conditions: Homo sapiens, read-out: PERCENT GROWTH
Description: as §1, §2, §3, §4

M14 = assay: NCI tumor cell line screen (SRB assay); type: cell-based; parameters: activity: dose or concentration left out as unconfirmed; conditions: Homo sapiens, read-out: PERCENT GROWTH
Description: as §1, §2, §3, §4

ACHN = assay: NCI tumor cell line screen (SRB assay); type: cell-based; parameters: activity: dose or concentration left out as unconfirmed; conditions: Homo sapiens, read-out: PERCENT GROWTH
Description: as §1, §2, §3, §4

LOX IMVI = assay: NCI tumor cell line screen (SRB assay); type: cell-based; parameters: activity: dose or concentration left out as unconfirmed; conditions: Homo sapiens, read-out: PERCENT GROWTH
Description: as §1, §2, §3, §4

IGROV1 = assay: NCI tumor cell line screen (SRB assay); type: cell-based; parameters: activity: dose or concentration left out as unconfirmed; conditions: Homo sapiens, IGROV-1, read-out: PERCENT GROWTH
Description: as §1, §2, §3, §4

SNB-19 = assay: NCI tumor cell line screen (SRB assay); type: cell-based; parameters: activity: dose or concentration left out as unconfirmed; conditions: Homo sapiens, read-out: PERCENT GROWTH
Description: as §1, §2, §3, §4

RXF 393 = assay: NCI tumor cell line screen (SRB assay); type: cell-based; parameters: activity: dose or concentration left out as unconfirmed; conditions: Homo sapiens, read-out: PERCENT GROWTH
Description: as §1, §2, §3, §4

SNB-75 = assay: NCI tumor cell line screen (SRB assay); type: cell-based; parameters: activity: dose or concentration left out as unconfirmed; conditions: Homo sapiens, read-out: PERCENT GROWTH
Description: as §1, §2, §3, §4

NCI-H522 = assay: NCI tumor cell line screen (SRB assay); type: cell-based; parameters: activity: dose or concentration left out as unconfirmed; conditions: Homo sapiens, read-out: PERCENT GROWTH
Description: as §1, §2, §3, §4

NCI-H322M = assay: NCI tumor cell line screen (SRB assay); type: cell-based; conditions: Homo sapiens, read-out: PERCENT GROWTH
Description: as §1, §2, §3, §4

MALME-3M = assay: NCI tumor cell line screen (SRB assay); type: cell-based; conditions: Homo sapiens, read-out: PERCENT GROWTH
Description: as §1, §2, §3, §4

## CCCCN1C(=O)CC(=O)N(CCCC)C1=S [Compound C1, 4,6(1H, 5H)-pyrimidinedione, 1,3-dibutyldihydro-2-thioxo]
[1]
  symptoms reported by subjects: alleviation from lethargy, depression and an increased appetite, feeling of being happy, and desire to live
EKVX; 10^-3.0 Molar
  activity: -69%
EKVX; 10^-4.0 Molar
  activity at 100 µM: 94%
EKVX; 10^-5.0 Molar
  activity at 10 µM: 104%
EKVX; 10^-6.0 Molar
  activity at 1 µM: 106%
EKVX; 10^-7.0 Molar
  activity at 0.1 µM: 98%
UACC-257; 10^-3.0 Molar
  activity: -77%
UACC-257; 10^-4.0 Molar
  activity at 100 µM: 75%
UACC-257; 10^-5.0 Molar
  activity at 10 µM: 96%
UACC-257; 10^-6.0 Molar
  activity at 1 µM: 102%
UACC-257; 10^-7.0 Molar
  activity at 0.1 µM: 102%
PK-10
  activity: -19%
  activity at 0.1 µM: 94%
  activity at 1 µM: 94%
  activity at 10 µM: 98%
  activity at 100 µM: 74%
HT29; 10^-3.0 Molar
  activity: -96%
HT29; 10^-4.0 Molar
  activity at 100 µM: 76%
HT29; 10^-6.0 Molar
  activity at 1 µM: 103%
HT29; 10^-7.0 Molar
  activity at 0.1 µM: 102%
A549/ATCC; 10^-3.0 Molar
  activity: -98%
A549/ATCC; 10^-4.0 Molar
  activity at 100 µM: 67%
A549/ATCC; 10^-5.0 Molar
  activity at 10 µM: 95%
A549/ATCC; 10^-6.0 Molar
  activity at 1 µM: 95%
A549/ATCC; 10^-7.0 Molar
  activity at 0.1 µM: 98%
SK-MEL-2; 10^-3.0 Molar
  activity: -55%
SK-MEL-2; 10^-4.0 Molar
  activity at 100 µM: 87%
SK-MEL-2; 10^-5.0 Molar
  activity at 10 µM: 100%
SK-MEL-2; 10^-6.0 Molar
  activity at 1 µM: 106%
SK-MEL-2; 10^-7.0 Molar
  activity at 0.1 µM: 110%
OVCAR-8; 10^-3.0 Molar
  activity: -49%
OVCAR-8; 10^-4.0 Molar
  activity at 100 µM: 81%
OVCAR-8; 10^-5.0 Molar
  activity at 10 µM: 108%
OVCAR-8; 10^-6.0 Molar
  activity at 1 µM: 106%
OVCAR-8; 10^-7.0 Molar
  activity at 0.1 µM: 102%
M14; 10^-3.0 Molar
  activity: -100%
M14; 10^-4.0 Molar
  activity at 100 µM: 94%
M14; 10^-5.0 Molar
  activity at 10 µM: 105%
M14; 10^-6.0 Molar
  activity at 1 µM: 100%
M14; 10^-7.0 Molar
  activity at 0.1 µM: 106%
ACHN; 10^-3.0 Molar
  activity: -3%
ACHN; 10^-4.0 Molar
  activity at 100 µM: 89%
ACHN; 10^-5.0 Molar
  activity at 10 µM: 107%
ACHN; 10^-6.0 Molar
  activity at 1 µM: 105%
ACHN; 10^-7.0 Molar
  activity at 0.1 µM: 99%
LOX IMVI; 10^-3.0 Molar
  activity: -100%
LOX IMVI; 10^-4.0 Molar
  activity at 100 µM: 65%
LOX IMVI; 10^-5.0 Molar
  activity at 10 µM: 102%
LOX IMVI; 10^-6.0 Molar
  activity at 1 µM: 106%
LOX IMVI; 10^-7.0 Molar
  activity at 0.1 µM: 101%
IGROV1; 10^-3.0 Molar
  activity: -85%
IGROV1; 10^-4.0 Molar
  activity at 100 µM: 88%
IGROV1; 10^-5.0 Molar
  activity at 10 µM: 103%
IGROV1; 10^-6.0 Molar
  activity at 1 µM: 107%
IGROV1; 10^-7.0 Molar
  activity at 0.1 µM: 105%
SNB-19; 10^-3.0 Molar
  activity: -54%
SNB-19; 10^-4.0 Molar
  activity at 100 µM: 90%
SNB-19; 10^-5.0 Molar
  activity at 10 µM: 109%
SNB-19; 10^-6.0 Molar
  activity at 1 µM: 99%
SNB-19; 10^-7.0 Molar
  activity at 0.1 µM: 105%
RXF 393; 10^-3.0 Molar
  activity: -85%
RXF 393; 10^-4.0 Molar
  activity at 100 µM: 43%
RXF 393; 10^-5.0 Molar
  activity at 10 µM: 86%
RXF 393; 10^-6.0 Molar
  activity at 1 µM: 93%
RXF 393; 10^-7.0 Molar
  activity at 0.1 µM: 93%
SNB-75; 10^-3.0 Molar
  activity: -65%
SNB-75; 10^-4.0 Molar
  activity at 100 µM: 83%
SNB-75; 10^-5.0 Molar
  activity at 10 µM: 120%
SNB-75; 10^-6.0 Molar
  activity at 1 µM: 113%
SNB-75; 10^-7.0 Molar
  activity at 0.1 µM: 106%
NCI-H522; 10^-3.0 Molar
  activity: -82%
NCI-H522; 10^-4.0 Molar
  activity at 100 µM: 47%
NCI-H522; 10^-5.0 Molar
  activity at 10 µM: 104%
NCI-H522; 10^-6.0 Molar
  activity at 1 µM: 102%
NCI-H522; 10^-7.0 Molar
  activity at 0.1 µM: 100%
NCI-H322M; 10^-3.0 Molar
  activity: -100%
NCI-H322M; 10^-4.0 Molar
  activity at 100 µM: 127%
NCI-H322M; 10^-5.0 Molar
  activity at 10 µM: 136%
NCI-H322M; 10^-6.0 Molar
  activity at 1 µM: 144%
NCI-H322M; 10^-7.0 Molar
  activity at 0.1 µM: 145%
MALME-3M; 10^-3.0 Molar
  activity: -83%
MALME-3M; 10^-4.0 Molar
  activity at 100 µM: 81%
MALME-3M; 10^-5.0 Molar
  activity at 10 µM: 101%
MALME-3M; 10^-6.0 Molar
  activity at 1 µM: 101%
MALME-3M; 10^-7.0 Molar
  activity at 0.1 µM: 101%
